From patent US20230181564A1, “Potent Tetrahydroquinolone Eliminates Apicomplexan Parasites” (The University of Chicago, priority 2020, published 2023)
≈ marks a conversion by molar mass, not a printed value.

What was measured:
[1] = test system: Human Foreskin Fibroblast (HFF); experiment: Cytotoxicity assay with WST-1 on HFF; assay type: cell-based; settings: WST assay, HFF; second value of cell
Experimental: PBS Sol/Toxicity pH7.4 refers to solubility of the compound in Phosphate Buffered Saline (PBS) at pH7.4. […] Tachy/Brady IC50 was determined in studies in which cultures of parasites in HFF were treated with varying concentrations of the compound and there was 50% inhibition of the replication (number) of parasites. Parasites were RH-YFP expressing tachyzoites (Tachy) and EGS (Brady) strains. Studies of effects of inhibitors on HFF or on T.gondii tachyzoites were performed with triplicate wells in at least two biological replicate experiments. Studies of effects on bradyzoites were performed at least twice in at least two biological replicate experiments. Compounds with much less inhibition of mammalian than T. gondii cytochrome bc in the saffarine enzyme assay (indicated by **) provide potential to further develop compounds, if unanticipated toxicity occurs from JAG21.
Cytotoxicity Assays in parallel with RH Strain T.gondii in vitro studies. Toxicity assays used WST-1 cell proliferation reagent (Roche) as in Fomovska et al. (2012). HFF were grown on a flat, clear-bottomed, black 96-well plate. Confluent HFF were treated with inhibitory compounds at concentrations of 10 μM and 50 μM. Compounds were diluted in IMDM-C, and 20 μL were added to each designated well, with triplicates for each condition. A gradient with 2 fold-decreasing concentrations of DMSO from 10% to 0% in colorless, translucent IMDM-C was used as a control. The plate was incubated for 72 hours at 37° C. 10 μL WST-1 reagent (Roche) were added to each well. Cells were incubated for 30-60 minutes. Absorbance was read using a fluorimeter at 420 nm. A higher degree of color change (and absorbance) indicated mitochondrial activity and cell viability.
Because T. gondii grows inside cells, if a compound were toxic to host HFF then it would make the compound appear to be spuriously effective (Fomovska et al. 2012; Fomovska et al. 2012a), when in actuality only toxicity for the host cell would be measured. Cytotoxicity to HFF was therefore assessed for all compounds at 10 μM. Results of this experiment are in Table 1, toxicity column. A two-way ANOVA and subsequent pairwise comparison found none of the differences in absorbance, compared to the media-DMSO vehicle controls, to be statistically significant (p>0.05). Most of these compounds are not toxic at 10 μM (the limit of solubility) and that cytotoxicity to cells can be attributed to DMSO in the solution, not the compound.

[2] = Metabolic stability in mouse liver microsomes; assay type: in vitro ADME; settings: predicted half-life in mouse liver microsomes; no unit in table (101 minutes for JAG021)
[3] = Kinetic/aqueous solubility in PBS pH 7.4; assay type: physicochemical; settings: for PBS Sol pH7.4: solubility in Phosphate Buffered Saline pH 7.4, first value of cell
Experimental: PBS Sol/Toxicity pH7.4 refers to solubility of the compound in Phosphate Buffered Saline (PBS) at pH7.4. […] Parasites were RH-YFP expressing tachyzoites (Tachy) and EGS (Brady) strains. Studies of effects of inhibitors on HFF or on T.gondii tachyzoites were performed with triplicate wells in at least two biological replicate experiments. Studies of effects on bradyzoites were performed at least twice in at least two biological replicate experiments. Compounds with much less inhibition of mammalian than T. gondii cytochrome bc in the saffarine enzyme assay (indicated by **) provide potential to further develop compounds, if unanticipated toxicity occurs from JAG21.
Structure Activity Relationship (SAR) and comparison of effect on T.gondii and HFF enzyme activity. […] The MDCK-MDR1 Permeability Assay was also performed. […] These were measured by Chem Partners.

Row | SMILES | Toxicity* (highest concentration tested that does not show toxicity to HFF) [1] | PBS Sol pH7.4 [3] [μM] | also measured
1 | Cc1[nH]c2c(c(=O)c1-c1ccc(Oc3ccc4c(c3)OCO4)cc1)CCCC2 [AS032] | ND/5 μM | – | –
2 | CCOC(=O)Oc1c2c(nc(C)c1-c1ccc(Oc3ccc(OC(F)(F)F)cc3)cc1)CCCC2 [JAG171] | ND/5 μM | – | –
3 | Cc1[nH]c2c(c(=O)c1-c1ccc(O)cc1)CCCC2 [JAG094] | ND/5 μM | – | –
4 | Cc1[nH]c2c(c(=O)c1-c1ccc(Oc3cccc(OC(F)(F)F)c3)cc1)CCCC2 [AS006] | – | 0.55 | T1/2 (M) [2]: 25.88
5 | Cc1[nH]c2c(c(=O)c1-c1cccc(Oc3ccc(Cl)cc3)c1)CCCC2 [NP034] | ND/5 μM | – | –
6 | O=c1c2c([nH]c(CO)c1-c1ccc(Oc3ccc(OC(F)(F)F)cc3)cc1)CC(C(F)(F)F)CC2 (stereo not shown) [JAG187] | ND/5 μM | – | –
7 | Cc1[nH]c2c(c(=O)c1-c1ccc(Oc3cc(Cl)cc(Cl)c3)cc1)CCC(C)C2 (stereo not shown) [JAG208] | ND/5 μM | – | –
8 | Cc1[nH]c2c(c(=O)c1-c1ccc(Oc3ccc(OC(F)(F)F)cc3)nc1)CCCC2 [JAG092] | ND/5 μM | – | –
9 | Cc1[nH]c2c(c(=O)c1-c1ccc(Oc3cccc(Cl)c3)cc1)CCCC2 [JAG062] | – | 0.33 | T1/2 (M) [2]: 12.42
10 | CCC1CCc2c([nH]c(CO)c(-c3ccc(Oc4ccc(OC(F)(F)F)cc4)cc3)c2=O)C1 (stereo not shown) [JAG174] | ND/5 μM | – | –
11 | Cc1[nH]c2ncnn2c(=O)c1-c1ccc(Oc2ccc(OC(F)(F)F)cc2)cc1 [MJM136] | ND/5 μM | – | –
12 | Cc1[nH]c2ccccc2c(=O)c1-c1ccc(Oc2ccccc2)cc1 [MJM129] | ND/5 μM | – | –
13 | Cc1[nH]c2c(c(=O)c1-c1ccc(Oc3cc(Cl)cc(Cl)c3)cc1)CCCC2 [AS022] | – | 6.25 | T1/2 (M) [2]: 28.62
14 | Cc1c(-c2ccc(Oc3ccc(Cl)cc3)cc2)c(=O)c2c(n1C)CCCC2 [JAG077] | ND/5 μM | – | –
15 | Cc1[nH]c2c(c(=O)c1-c1ccc(Oc3ccc(F)c(Cl)c3)cc1)CCCC2 [AS021] | – | 2 | T1/2 (M) [2]: 41.09
16 | Cc1[nH]c2c(c(=O)c1-c1ccc(Oc3cccc(C(F)(F)F)c3)cc1)CCCC2 [AS012] | – | 2.19 | T1/2 (M) [2]: 30.05
17 | Cc1[nH]c2c(c(=O)c1-c1cccc(Oc3ccc(C(F)(F)F)cc3)c1)CCCC2 [NP035] | ND/5 μM | – | –
18 | O=C(O)c1[nH]c2c(c(=O)c1-c1ccc(Oc3ccc(OC(F)(F)F)cc3)cc1)CCCC2 [JAG091] | ND/5 μM | – | –
19 | Cc1[nH]c2cnccc2c(=O)c1-c1ccc(Oc2ccc(OC(F)(F)F)cc2)cc1 [JAG129] | – | 5.12 | –
20 | CC1CCc2c([nH]c(CO)c(-c3ccc(Oc4ccc(OC(F)(F)F)cc4)cc3)c2=O)C1 (stereo not shown) [JAG193] | ND/5 μM | – | –
21 | Cc1[nH]c2cc(-c3ccccc3)nn2c(=O)c1-c1ccc(Oc2ccc(OC(F)(F)F)cc2)cc1 [JAG015] | ND/5 μM | – | –
22 | Cc1[nH]c2c(c(=O)c1-c1cccc(Oc3ccc(F)c(Cl)c3)c1)CCCC2 [JAG200] | ND/5 μM | – | –

Row | SMILES | Toxicity* (highest concentration tested that does not show toxicity to HFF) [1] | PBS Sol pH7.4 [3] [μM] | also measured
23 | Cc1[nH]c2c(c(=O)c1-c1ccc(Oc3ccc(Cl)c(Cl)c3)cc1)CCCC2 [JAG084] | – | 0.68 | T1/2 (M) [2]: 63.1
24 | Cc1[nH]c2ccnn2c(=O)c1-c1ccc(Oc2ccc(OC(F)(F)F)cc2)cc1 [MJM141] | – | 0.94 | –
25 | Cc1[nH]c2ccccc2c(=O)c1-c1ccc(Oc2ccc(OC(F)(F)F)cc2)cc1 [ELQ271, reference compound] | – | 0.15 | solubility ([3]; amorphous compounds): 0.2 µM (≈ 0.0823 µg/mL)
26 | CCC1CCc2c([nH]c(C)c(-c3ccc(Oc4ccc(OC(F)(F)F)cc4)cc3)c2=O)C1 (stereo not shown) [JAG121] | – | 0.16 | T1/2 (M) [2]: 63.28
27 | Cc1cc2[nH]c(C)c(-c3ccc(Oc4ccc(OC(F)(F)F)cc4)cc3)c(=O)n2n1 [JAG006] | ND/5 μM | – | –
28 | Cc1[nH]c2c(c(=O)c1-c1ccc(Oc3ccc(F)cc3)cc1)CCCC2 [JAG058] | – | 2.38 | T1/2 (M) [2]: 39.17
29 | Cc1[nH]c2c(c(=O)c1-c1cccc(Oc3ccc(OC(F)(F)F)cc3)c1)CCCC2 [NP032] | ND/5 μM | – | –
30 | CSc1nc2[nH]c(C)c(-c3ccc(Oc4ccc(OC(F)(F)F)cc4)cc3)c(=O)n2n1 [JAG013] | ND/5 μM | – | –
31 | Cc1[nH]c2c(c(=O)c1-c1ccc(Oc3ccc(C(=O)O)cc3)nc1)CCCC2 [JAG022] | ND/5 μM | – | –
32 | Cc1[nH]c2c(c(=O)c1-c1ccc(Oc3ccc(C(F)(F)F)cc3)cc1)CCCC2 [JAG063] | – | 0.45 | T1/2 (M) [2]: 126.96
33 | Cc1[nH]c2c(c(=O)c1-c1ccc(Oc3ccc(OC(F)(F)F)cc3)cc1)CCC(C)C2 (stereo not shown) [JAG107] | – | 0.03 | T1/2 (M) [2]: 111.93
34 | O=c1[nH]c2c(c(=O)n1-c1ccc(Oc3ccccc3)cc1)CCCC2 [JAG095] | ND/5 μM | – | –
35 | Cc1[nH]c2c(c(=O)c1-c1cccc(Oc3cc(Cl)cc(Cl)c3)c1)CCCC2 [JAG199] | ND/5 μM | – | –
36 | Cc1[nH]c2c(c(=O)c1-c1ccc(Oc3cc(Cl)nc(Cl)c3)cc1)CCCC2 [AS034] | – | 5.05 | T1/2 (M) [2]: 24.93
37 | COc1ccc(Oc2ccc(-c3c(C)[nH]c4c(c3=O)CCCC4)cc2)cc1OC [AS033] | ND/5 μM | – | –
38 | Cc1[nH]c2c(C#N)cnn2c(=O)c1-c1ccc(Oc2ccc(OC(F)(F)F)cc2)cc1 [JAG014] | ND/5 μM | – | –
39 | Cc1c(-c2ccc(Oc3ccc(OC(F)(F)F)cc3)cc2)c(=O)c2c(n1C)CCCC2 [JAG023] | ND/5 μM | – | –
40 | Cc1[nH]c2c(c(=O)c1-c1ccc(Oc3ccc(OC(F)(F)F)cc3)cc1)CC(C)CC2 (stereo not shown) [JAG106] | ND/5 μM | – | –
41 | Cc1[nH]c2c(c(=O)c1-c1ccc(Oc3cccc(F)c3)cc1)CCCC2 [JAG069] | – | 0.5 | T1/2 (M) [2]: 17.38
42 | Cc1[nH]c2c(c(=O)c1-c1ccc(Oc3ccc(OC(F)(F)F)cc3)cc1)CC(C(F)(F)F)CC2 (stereo not shown) [JAG100] | ND/5 μM | – | –
43 | Cc1[nH]c2c(c(=O)c1-c1ccc(Oc3ccc(OC(F)(F)F)cc3)cc1)CCC(C(F)(F)F)C2 (stereo not shown) [JAG162] | – | 0.02 | T1/2 (M) [2]: 144.43
44 | Cc1[nH]c2c(c(=O)c1-c1ccc(OCc3ccccc3)cc1)CCCC2 [JAG204] | ND/5 μM | – | –
